Where a name gives a salt, the structure may show the parent alone.
Tests used:
ROS tyrosine kinase = target: T1, ROS tyrosine kinase (Homo sapiens, UniProt P08922); assay: ROS tyrosine kinase inhibitory activity test (ELISA); assay type: biochemical, humans; conditions: 25 μM ATP substrate solution, 30° C., one hour
T1 construct: purchased Carna Biosciences, Inc
In short: (§1)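 Human recombinant ROS or JAK2 kinase (added as a 0.25 nM solution) reacted for 1 h at 30 °C in 15 mM Tris-Cl pH 7.5, 0.01% Tween-20, 1 mM DTT with compound from DMSO. Substrate phosphotyrosine was detected by HRP anti-phosphotyrosine antibody and TMB at A450, and IC50 came from non-linear regression.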

JAK2 tyrosine kinase = target: T2, JAK2 tyrosine kinase (Homo sapiens, UniProt O60674); assay: JAK2 tyrosine kinase inhibitory activity test (ELISA); assay type: biochemical, humans; conditions: 25 μM ATP substrate solution, 30° C., one hour
T2 construct: purchased Carna Biosciences, Inc
In short: as §1

FIG-ROS/BaF3 cell = target: T3, FIG-ROS/BaF3 cell (Homo sapiens, UniProt P08922); assay: Proliferation inhibitory activity test against FIG-ROS/BaF3 cell; assay type: cell-based; conditions: 3 days incubation, cell counting kit; read-out: Proliferation inhibitory activity against FIG-ROS/BaF3 cell (IC50)
T3 construct: fused on or other part: Q9HD26 (Golgi-associated PDZ and coiled-coil motif-containing protein)
Experimental: A BaF3 cell which had been transformed by introducing the FIG-ROS fusion gene (derived from U118MG human glioma cell) (FIG-ROS/BaF3 Cell) was prepared on a culture medium, seeded on a 96-well plate in the number of 1×10^3/100 μL per well, and then allowed to stand in a CO2 incubator (at 37° C. and 5% CO2). As the culture medium, 10% FBS (fetal bovine serum)-incorporated RPMI-1640 was used.
2. Proliferation Inhibitory Activity Test:
A test substance was dissolved in dimethyl sulfoxide (DMSO) to 10 mM and further diluted with DMSO to 100-fold to prepare a 100 μM solution. This was diluted with a 1% DMSO-incorporated medium to concentrations of 10-fold of the concentration to be measured (10,000, 1,000, 100, 10, and 1 nM). Each of the medicine solutions was added at 11 μL per well and mixed. To a control having no medicine added thereto, a 1% DMSO-incorporated medium was added, and incubated in a CO2 incubator (at 37° C. and 5% CO2) for 3 days. After completion of the incubation, the number of live cells was counted using a cell counting kit. First of all, each cell counting kit solution was added at 5 μL per well and mixed, and incubated in a CO2 incubator (at 37° C. and 5% CO2) for 4 hours. An absorbance at 450 nm was measured with a microplate reader (Model 3550, manufactured by BIO-RAD, Benchmark, manufactured by BIO-RAD, or iMARK, manufactured by BIO-RAD) with a reference wavelength of 650 nm.
3. Analysis of Measurement Results:
A non-linear regression analysis was performed for the measured absorbance with an SAS system (SAS Institute Inc.), and a concentration of each of the test substances of inhibiting the cell proliferation at 50% (IC50) was calculated. The proliferation inhibitory activity (IC50, nM) of each of the test substances against the FIG-ROS/BaF3 cell is shown in Table 9.

[1] = test system: non-small cell lung cancer with ROS fusion gene positive; conditions: clinical application, Non-Patent Document 22; cited from earlier work

T2 sequence (O60674 whole entry): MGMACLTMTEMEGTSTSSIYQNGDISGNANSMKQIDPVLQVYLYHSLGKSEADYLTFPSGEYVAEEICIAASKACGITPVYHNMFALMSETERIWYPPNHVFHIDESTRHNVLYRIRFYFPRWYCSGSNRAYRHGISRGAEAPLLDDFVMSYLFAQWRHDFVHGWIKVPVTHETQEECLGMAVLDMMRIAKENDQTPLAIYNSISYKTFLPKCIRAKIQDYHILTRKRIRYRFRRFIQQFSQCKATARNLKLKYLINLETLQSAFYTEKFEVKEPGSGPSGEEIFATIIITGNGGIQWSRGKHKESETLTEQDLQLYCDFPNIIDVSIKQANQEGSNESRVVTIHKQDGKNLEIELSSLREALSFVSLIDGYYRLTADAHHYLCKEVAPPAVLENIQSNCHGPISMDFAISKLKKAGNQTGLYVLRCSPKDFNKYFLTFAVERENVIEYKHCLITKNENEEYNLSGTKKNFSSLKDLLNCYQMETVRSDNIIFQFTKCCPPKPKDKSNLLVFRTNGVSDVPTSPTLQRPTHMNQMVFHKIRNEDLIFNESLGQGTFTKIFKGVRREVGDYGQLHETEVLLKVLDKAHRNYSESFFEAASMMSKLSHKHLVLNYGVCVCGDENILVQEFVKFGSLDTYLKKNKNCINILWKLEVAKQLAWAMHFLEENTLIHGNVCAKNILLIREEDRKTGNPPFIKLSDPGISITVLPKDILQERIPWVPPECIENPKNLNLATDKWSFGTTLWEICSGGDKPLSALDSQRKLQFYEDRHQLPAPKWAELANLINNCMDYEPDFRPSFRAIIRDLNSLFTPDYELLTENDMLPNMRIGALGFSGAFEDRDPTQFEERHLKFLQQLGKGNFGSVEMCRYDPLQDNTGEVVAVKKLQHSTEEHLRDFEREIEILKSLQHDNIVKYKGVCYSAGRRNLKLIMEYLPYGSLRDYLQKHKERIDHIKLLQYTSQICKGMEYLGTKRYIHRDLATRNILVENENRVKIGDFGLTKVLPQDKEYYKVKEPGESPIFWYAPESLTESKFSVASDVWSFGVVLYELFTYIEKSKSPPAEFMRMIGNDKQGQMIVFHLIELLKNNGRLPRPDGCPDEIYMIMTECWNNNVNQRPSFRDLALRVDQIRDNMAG
T1 sequence (P08922 28-2347): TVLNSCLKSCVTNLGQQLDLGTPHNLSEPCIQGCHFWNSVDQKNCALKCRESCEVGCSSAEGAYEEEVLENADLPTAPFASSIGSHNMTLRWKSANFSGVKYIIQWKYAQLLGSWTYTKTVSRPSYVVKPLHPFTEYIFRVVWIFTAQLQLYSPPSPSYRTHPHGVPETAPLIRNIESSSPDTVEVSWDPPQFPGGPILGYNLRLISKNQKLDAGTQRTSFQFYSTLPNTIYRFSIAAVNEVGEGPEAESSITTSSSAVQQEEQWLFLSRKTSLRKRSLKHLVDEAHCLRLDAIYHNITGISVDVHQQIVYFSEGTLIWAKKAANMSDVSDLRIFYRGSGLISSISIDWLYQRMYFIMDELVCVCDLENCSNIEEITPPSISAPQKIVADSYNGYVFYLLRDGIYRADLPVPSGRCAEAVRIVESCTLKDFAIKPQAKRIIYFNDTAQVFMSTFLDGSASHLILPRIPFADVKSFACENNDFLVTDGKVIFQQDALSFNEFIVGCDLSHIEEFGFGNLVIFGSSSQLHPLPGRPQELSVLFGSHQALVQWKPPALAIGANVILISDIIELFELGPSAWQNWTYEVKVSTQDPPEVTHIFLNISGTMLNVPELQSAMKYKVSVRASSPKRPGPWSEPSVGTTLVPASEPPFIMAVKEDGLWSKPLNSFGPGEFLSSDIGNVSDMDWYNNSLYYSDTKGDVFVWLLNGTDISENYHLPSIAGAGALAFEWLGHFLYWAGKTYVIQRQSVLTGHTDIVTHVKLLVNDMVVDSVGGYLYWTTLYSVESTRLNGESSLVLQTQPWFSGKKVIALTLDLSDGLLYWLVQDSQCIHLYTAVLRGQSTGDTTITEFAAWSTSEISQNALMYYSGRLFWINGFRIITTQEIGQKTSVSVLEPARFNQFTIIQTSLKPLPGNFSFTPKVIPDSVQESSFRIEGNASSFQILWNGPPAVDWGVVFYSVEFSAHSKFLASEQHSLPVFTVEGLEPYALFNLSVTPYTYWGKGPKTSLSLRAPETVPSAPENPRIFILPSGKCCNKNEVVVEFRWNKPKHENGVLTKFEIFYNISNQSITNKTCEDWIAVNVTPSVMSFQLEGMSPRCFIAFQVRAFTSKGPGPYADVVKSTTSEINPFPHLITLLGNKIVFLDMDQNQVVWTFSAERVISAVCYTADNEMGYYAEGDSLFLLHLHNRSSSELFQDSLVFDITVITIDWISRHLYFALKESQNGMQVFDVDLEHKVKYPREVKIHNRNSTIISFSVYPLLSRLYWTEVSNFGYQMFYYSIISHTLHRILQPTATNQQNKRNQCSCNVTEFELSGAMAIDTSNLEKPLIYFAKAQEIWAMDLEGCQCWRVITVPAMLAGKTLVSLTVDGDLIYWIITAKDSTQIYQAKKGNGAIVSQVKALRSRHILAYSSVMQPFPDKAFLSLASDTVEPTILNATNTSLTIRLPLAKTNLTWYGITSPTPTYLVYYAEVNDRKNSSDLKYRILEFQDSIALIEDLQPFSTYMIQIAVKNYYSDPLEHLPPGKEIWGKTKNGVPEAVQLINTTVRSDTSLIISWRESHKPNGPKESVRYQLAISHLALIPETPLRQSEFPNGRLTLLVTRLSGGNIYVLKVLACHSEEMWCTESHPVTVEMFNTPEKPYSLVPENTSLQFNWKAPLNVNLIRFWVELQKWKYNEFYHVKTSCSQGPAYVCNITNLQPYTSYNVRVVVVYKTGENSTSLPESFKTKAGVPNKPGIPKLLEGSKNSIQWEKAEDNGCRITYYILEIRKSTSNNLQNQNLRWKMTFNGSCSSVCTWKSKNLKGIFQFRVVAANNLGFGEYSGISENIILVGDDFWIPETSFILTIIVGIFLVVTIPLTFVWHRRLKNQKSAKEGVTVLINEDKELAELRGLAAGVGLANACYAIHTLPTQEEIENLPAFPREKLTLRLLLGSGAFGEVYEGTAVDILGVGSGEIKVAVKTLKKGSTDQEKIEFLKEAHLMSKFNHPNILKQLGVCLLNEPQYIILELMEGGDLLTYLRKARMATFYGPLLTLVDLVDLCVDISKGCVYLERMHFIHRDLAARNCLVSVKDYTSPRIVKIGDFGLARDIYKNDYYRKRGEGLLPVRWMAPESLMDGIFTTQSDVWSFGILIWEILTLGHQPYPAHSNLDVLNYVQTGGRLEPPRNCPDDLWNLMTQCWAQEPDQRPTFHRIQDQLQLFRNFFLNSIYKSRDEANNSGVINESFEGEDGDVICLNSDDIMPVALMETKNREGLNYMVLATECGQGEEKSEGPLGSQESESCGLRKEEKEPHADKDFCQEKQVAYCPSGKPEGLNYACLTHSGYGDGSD

Row | Compound | IC50 (ROS tyrosine kinase) [nM] | IC50 (JAK2 tyrosine kinase) [nM] | GI50 (FIG-ROS/BaF3 cell) [nM] | effectiveness for patients of non-small cell lung cancer with ROS fusion gene positive [1]
1 | CCOC(=O)c1cnc(Nc2cncc(N3CCCC3c3ccc(C)cc3)n2)s1 (stereo not shown) [Example 51, Ethyl 2-({6-[2-(4-methylphenyl)pyrrolidin-1-yl]pyrazin-2-yl}amino)-1,3-thiazole-5-carboxylate] | 88 | 930 | 160 | –
2 | CNC(=O)c1cc(N2CCC[C@H]2c2ccc(C)cc2)nc(Nc2ncc(C#N)s2)c1C [Example 55, 2-[(5-Cyano-1,3-thiazol-2-yl)amino]-N,3-dimethyl-6-[(2S)-2-(4-methylphenyl)pyrrolidin-1-yl]pyridine-4-carboxamide] | 0.6 | 24 | 0.3 | –
3 | CCc1c(COC)nc(N2CCC[C@H]2c2ccc(C)cc2)nc1Nc1ncc(C#N)s1 [Example 57, 2-({5-Ethyl-6-(methoxymethyl)-2-[(2S)-2-(4-methylphenyl)pyrrolidin-1-yl]pyrimidin-4-yl}amino)-1,3-thiazole-5-carbo nitrile] | 2.7 | > 1000 | 1.8 | –
4 | COc1c(Nc2ncc(C#N)s2)nc(N2CCC[C@H]2c2ccc(C)cc2)nc1C(=O)N[C@H]1CC[C@H](C(=O)O)CC1 [Example 63, Trans-4-[({6-[(5-cyano-1,3-thiazol-2-yl)amino]-5-methoxy-2-[(2S)-2-(4-methylphenyl)pyrrolidin-1-yl]pyrimidin-4-yl}carbonyl)amino]cyclohexanecarboxylic acid] | 0.3 | 120 | 3.5 | –
5 | COc1c(Nc2ncc(C#N)s2)nc(N2CCC[C@H]2c2ccc(C)cc2)nc1-c1ccc(O)nc1 [Example 65, 2-({6-(6-Hydroxypyridin-3-yl)-5-methoxy-2-[(2S)-2-(4-methylphenyl)pyrrolidin-1-yl]pyrimidin-4-yl}amino)-1,3-thiazole-5-carbonitrile] | 1.3 | 260 | 1.9 | –
6 | Cc1ccc([C@@H]2CCCN2c2cc(C(=O)N[C@H]3CC[C@H](O)CC3)c(C)c(Nc3ncc(C#N)s3)n2)cc1 [Example 68, 2-[(5-Cyano-1,3-thiazol-2-yl)amino]-N-(4-hydroxycyclohexyl)-3-methyl-6-[(2S)-2-(4-methylphenyl)pyrrolidin-1-yl]pyridine-4-carboxamide] | 0.76 | 22 | 0.71 | –
7 | CC(=O)N1CCc2nc(N3CCC[C@H]3c3ccc(C)cc3)nc(Nc3ncc(C#N)s3)c2C1 [Example 71, 2-({6-Acetyl-2-[(2S)-2-(4-methylphenyl)pyrrolidin-1-yl]-5,6,7,8-tetrahydropyrido[4,3-d]pyrimidin-4-yl}amino)-1,3-thiazole-5-carbonitrile] | 1.2 | 150 | 2 | –
8 | C[C@@H](Oc1cc(-c2cnn(C3CCNCC3)c2)cnc1N)c1c(Cl)ccc(F)c1Cl [crizotinib] | – | – | – | effective

Further lines, with some results ahead:

Row | IC50 (ROS tyrosine kinase) [nM] | IC50 (JAK2 tyrosine kinase) [nM] | GI50 (FIG-ROS/BaF3 cell) [nM] | Compound | effectiveness for patients of non-small cell lung cancer with ROS fusion gene positive [1]
9 | 3.9 | 190 | 0.4 | Cc1ccc([C@@H]2CCCN2c2nc(Nc3ncc(C#N)s3)c(C)c(C(=O)NC3CCN(C)CC3)n2)cc1 [Example 54, 6-[(5-Cyano-1,3-thiazol-2-yl)amino]-5-methyl-2-[(2S)-2-(4-methylphenyl)pyrrolidin-1-yl]-N-(l-methylpiperidin-4-yl)pyrimidine-4-carboxamide] | –
10 | 6.7 | > 1000 | 8.2 | COc1c(C)nc(N2CCC[C@H]2c2ccc(C)cc2)nc1Nc1ncc(F)s1 [Example 56, N-(5-Fluoro-1,3-thiazol-2-yl)-5-methoxy-6-methyl-2-[(2S)-2-(4-methylphenyl)pyrrolidin-1-yl]pyrimidine-4-amine] | –
11 | 1.5 | 190 | 1.3 | COc1c(Nc2ncc(C#N)s2)nc(N2CCC[C@H]2c2ccc(C)cc2)nc1-c1cnn(CCO)c1 [Example 59, 2-({6-[1-(2-Hydroxyethyl)-1H-pyrazol-4-yl]-5-methoxy-2-[(2S)-2-(4-methylphenyl)pyrrolidin-1-yl]pyrimidin-4-yl}amino)-1,3-thiazole-5-carbonitrile] | –
12 | 2.3 | 740 | 2.9 | COc1c(Nc2ncc(C#N)s2)nc(N2CCC[C@H]2c2ccc(C)cc2)nc1-c1cnc(C)nc1 [Example 60, 2-({5-Methoxy-2′-methyl-2-[(2S)-2-(4-methylphenyl)pyrrolidin-1-yl]-4,5′-bipyrimidin-6-yl}amino)-1,3-thiazole-5-carbonitrile] | –
13 | 2.5 | 490 | 1 | COc1c(Nc2ncns2)nc(N2CCC[C@H]2c2ccc(C)cc2)nc1-c1cnn(CCO)c1 [Example 61, 2-(4-{5-Methoxy-2-[(2S)-2-(4-methylphenyl)pyrrolidin-1-yl]-6-(1,2,4-thiadiazol-5-ylamino)pyrimidin-4-yl}-1H-pyrazol-1-yl)ethanol] | –
14 | 2.1 | > 1000 | 2.6 | COc1c(Nc2ncc(C#N)s2)nc(N2CCC[C@H]2c2ccc(C)cc2)nc1C(=O)N[C@H]1CC[C@H](O)CC1 [Example 62, 6-[(5-Cyano-1,3-thiazol-2-yl)amino]-N-(trans-4-hydroxycyclohexyl)-5-methoxy-2-[(2S)-2-(4-methylphenyl)pyrrolidin-1-yl]pyrimidine-4-carboxamide] | –
15 | 2.6 | > 1000 | 1.5 | COCCNC(=O)c1nc(N2CCC[C@H]2c2ccc(C)cc2)nc(Nc2ncc(C#N)s2)c1OC [Example 64, 6-[(5-Cyano-1,3-thiazol-2-yl)amino]-5-methoxy-N-(2-methoxyethyl)-2-[(2S)-2-(4-methylphenyl)pyrrolidin-1-yl]pyrimidine-4-carboxamide] | –
16 | 1.5 | 370 | 2.1 | CCc1c(Nc2ncc(C#N)s2)nc(N2CCC[C@H]2c2ccc(C)cc2)nc1C(=O)NS(C)(=O)=O [Example 67, 6-[(5-Cyano-1,3-thiazol-2-yl)amino]-5-ethyl-2-[(2S)-2-(4-methylphenyl)pyrrolidin-1-yl]-N-(methylsulfonyl)pyrimidine-4-carboxamide] | –
17 | 11 | 17 | 6.9 | Cc1ccc([C@@H]2CCCN2c2cc(-c3cnn(C)c3)cc(Nc3ncns3)n2)cc1 [Example 69, 6-[(2S)-2-(4-Methylphenyl)pyrrolidin-1-yl]-4-(1-methyl-1H-pyrazol-4-yl)-N-(1,2,4-thiadiazol-5-yl)pyridine-2-amine] | –
18 | 2.9 | > 1000 | 1.7 | CCc1c(C)nc(N2CCC[C@H]2c2ccc(C)cc2)nc1Nc1ncc(C#N)s1 [Example 70, 2-({5-Ethyl-6-methyl-2-[(2S)-2-(4-methylphenyl)pyrrolidin-1-yl]pyrimidin-4-yl}amino)-1,3-thiazole-5-carbonitrile maleate] | –

Source: US9580413B2, “Substituted pyrrolidines as ROS tyrosine kinase inhibitors” (NIPPON SHINYAKU CO., LTD., priority 2012, dated 2017)
